Assay results: patent US20170291890A1 (Epizyme, Inc., priority 2014, published 2017)

What was measured:
[1] = molecular target: T1, KDM4A (Homo sapiens, UniProt O75164); experiment: KDM4A Assay (SAMDI mass spectrometry demethylase assay); type: biochemical; settings: N-terminal His-tagged KDM4A 1-350; class symbols; read-out: 4A IC50
T1 construct: N-terminal His-tagged KDM4A^1-350 was purchased from BPS Biosciences; His (N); purchased BPS Biosciences
T1 sequence (O75164 1-350): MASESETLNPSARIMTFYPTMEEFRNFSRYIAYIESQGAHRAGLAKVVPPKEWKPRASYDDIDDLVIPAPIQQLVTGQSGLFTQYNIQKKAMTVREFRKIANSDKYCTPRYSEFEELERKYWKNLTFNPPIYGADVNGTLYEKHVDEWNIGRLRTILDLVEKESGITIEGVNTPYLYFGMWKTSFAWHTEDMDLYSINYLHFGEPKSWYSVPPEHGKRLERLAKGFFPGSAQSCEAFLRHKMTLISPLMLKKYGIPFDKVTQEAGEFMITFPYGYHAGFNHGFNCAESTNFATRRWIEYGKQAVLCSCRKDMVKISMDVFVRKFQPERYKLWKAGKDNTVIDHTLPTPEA
Experimental: N-terminal His-tagged KDM4A^1-350 was purchased from BPS Biosciences. Peptides were synthesized by BioPeptide and all other reagents were purchased from Sigma-Aldrich at the highest level of purity possible. Assays were performed in a 50 μL volume in 384-well V-bottom polypropylene microplates (Greiner) at 25° C. Optimized 1× assay buffer was 50 mM HEPES (pH=8.0), 100 μM sodium ascorbate, 20 mM NaCl, 10 μM ammonium iron sulfate, 1 mM tris(2-carboxyethyl)phosphine (TCEP), 0.002% Tween-20, and 0.005% BSG. For compound screening, 35 μL of KDM4A^1-350 (final concentration, f.c.=5 nM) was added using a Multidrop Combi and preincubated with 1 μL of test compound (f.c.=10 μM) for 30 minutes and subsequently 15 μL of peptide with the following sequence NH2-ARTKQTAR(Kme2)STGGKAPRKQLA(K-Ahx-Biotin)-amide (f.c.=600 nM) and 2-oxoglutarate (f.c.=5 μM) was added by Multidrop Combi to begin the reaction. Reactions proceeded for 120 minutes and were stopped by the addition of 5 μL of formic acid (f.c.=0.5%) using a Multidrop Combi and then analyzed by SAMDI Tech Inc.
SAMDI Tech analyzed all reactions using self-assembled monoloayer desorption/ionization technology as previously described (Gerard-Levin Z A, Scholle M D, Eisenberg A H, et al.: High-throughput screening of small molecule libraries using SAMDI mass spectrometry. ACS Comb Sci 2011; 13:347-350). Briefly, a 2 μL sample of the stopped demethylase reactions were transferred to a SAMDI array coated with 384 biotin-neutravidin spots using a 384-channel pipet station. The SAMDI arrays were incubated for 1 h in a humidified chamber, followed by washing of the surface with deionized ultra-filtered water (DIUF) and drying under nitrogen. A matrix of 30 mg/ml 2′,4′,6′-Trihydroxyacetophenone monohydrate (THAP) in acetone was applied using a TPP Mosquito 1.2 μL tip by dispensing 50 nL on each of the 384 spots on the array. SAMDI-MS was run using acquisition method ReflectorPositiveUTX. The % conversion of substrate to product was calculated using the AUC of the substrate and product peptide peaks.
An IC50 value was determined by contacting various concentrations of a test compound with one of the KDM4A, KDM4C or KDMSC enzyme constructs and plotting a dose-response curve which associates the amount of inhibition of the enzyme relative to the concentration of the test compound. From the curve, the IC50 value (which represents the concentration of the test compound necessary to inhibit maximal enzymatic activity by 50%) was determined. Additionally, the slope of the linear range of the plotted curve, which indicates the speed with which the curve rises between the minimum and maximum, was calculated.

[2] = molecular target: T2, KDM4C (Homo sapiens, UniProt Q9H3R0); experiment: KDM4C Assay (SAMDI mass spectrometry demethylase assay); type: biochemical; settings: N-terminal GST-tagged KDM4C 2-372; class symbols; read-out: 4C IC50
T2 construct: N-terminal GST-tagged KDM4C^2-372 was purchased from BPS Biosciences; GST (N); purchased BPS Biosciences
T2 sequence (Q9H3R0 2-372): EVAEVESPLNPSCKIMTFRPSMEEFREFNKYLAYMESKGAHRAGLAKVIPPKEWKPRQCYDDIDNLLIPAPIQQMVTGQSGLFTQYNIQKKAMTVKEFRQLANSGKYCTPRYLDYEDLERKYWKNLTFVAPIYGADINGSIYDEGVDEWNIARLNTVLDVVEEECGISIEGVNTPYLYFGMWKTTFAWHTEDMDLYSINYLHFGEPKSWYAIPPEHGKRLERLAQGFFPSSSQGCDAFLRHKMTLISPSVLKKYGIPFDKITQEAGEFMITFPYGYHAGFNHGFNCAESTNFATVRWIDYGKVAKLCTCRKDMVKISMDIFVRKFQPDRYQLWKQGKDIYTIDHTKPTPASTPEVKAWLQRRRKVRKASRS
Outline: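 GST-tagged KDM4C 2-372 (5 nM) preincubated 30 min with compound, then H3K9me3 biotinylated peptide (500 nM) and 2-oxoglutarate (15 μM) added in HEPES pH 8.0 with ascorbate, Fe(II), TCEP; 150 min at 25 °C, formic-acid quench. Conversion by SAMDI mass spectrometry from substrate/product peak AUC; IC50 from dose-response.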

SMILES	IC50 [1] [nM]	IC50 [2] [nM]
O=C(O)c1ccncc1Nc1cn(-c2ccccc2)nc1-c1ccccc1 [Compound 41, 3-((1,3-Diphenyl-1H-pyrazol-4-yl)amino)isonicotinic acid]	100 to 1000	100 to 1000
O=C(O)c1ccncc1Nc1cn(CCN2CCC(F)(F)CC2)nc1-c1ccccc1 [Compound 17, 3-((1-(2-(4,4-Difluoropiperidin-1-yl)ethyl)-3-phenyl-1H-pyrazol-4-yl)amino)isonicotinic acid]	1000 to 10000	1000 to 10000
O=C(O)c1ccncc1Nc1nn(CCN2CCC(F)(F)CC2)cc1-c1ccc(F)cc1 [Compound 45, 3-((1-(2-(4,4-difluoropiperidin-1-yl)ethyl)-4-(4-fluorophenyl)-1H-pyrazol-3-yl)amino)isonicotinic acid]	100 to 1000	100 to 1000
O=C(O)c1ccncc1Nc1c(-c2ccccc2)cnn1CCN1CCC(F)(F)CC1 [Compound 15, 3-((1-(2-(4,4-difluoropiperidin-1-yl)ethyl)-4-phenyl-1H-pyrazol-5-yl)amino)isonicotinic acid]	10000 to 100000	10000 to 100000
CN(C)CCn1ncc(-c2ccccc2)c1Nc1cnccc1C(=O)O [Compound 65, 3-((1-(2-(dimethylamino)ethyl)-4-phenyl-1H-pyrazol-5-yl)amino)isonicotinic acid]	1000 to 10000	1000 to 10000
Cn1ncc(-c2ccc(F)cc2)c1Nc1cnccc1C(=O)O [Compound 8, 3-((4-(4-fluorophenyl)-1-methyl-1H-pyrazol-5-yl)amino) isonicotinic acid]	1000 to 10000	1000 to 10000
O=C(O)c1ccncc1Nc1nn(CCN2CCC(F)(F)CC2)cc1-c1ccccc1 [Compound 14, 3-((1-(2-(4,4-Difluoropiperidin-1-yl)ethyl)-4-phenyl-1H-pyrazol-3-yl)amino)isonicotinic acid]	100 to 1000	100 to 1000
O=C(O)c1ccncc1Nc1nn(C2CCOCC2)cc1-c1ccccc1 [Compound 72, 3-((4-phenyl-1-(tetrahydro-2H-pyran-4-yl)-1H-pyrazol-3-yl)amino)isonicotinic acid]	1000 to 10000	1000 to 10000
Cc1c(Nc2cnccc2C(=O)O)cnn1-c1ccccc1 [Compound 20, 3-((5-methyl-1-phenyl-1H-pyrazol-4-yl)amino)isonicotinic acid]	1 to 100	1 to 100
O=C(O)c1ccncc1Nc1nn(-c2ccccc2)cc1-c1ccccc1 [Compound 42, 3-((1,4-diphenyl-1H-pyrazol-3-yl)amino)isonicotinic acid]	100 to 1000	100 to 1000
O=C(O)c1ccncc1Nc1cnn(CCN2CCC(F)(F)CC2)c1-c1ccccc1 [Compound 18, 3-((1-(2-(4,4-difluoropiperidin-1-yl)ethyl)-5-phenyl-1H-pyrazol-4-yl)amino)isonicotinic acid]	100 to 1000	100 to 1000
Cc1cc(Nc2cnccc2C(=O)O)n(C2CCOCC2)n1 [Compound 78, 3-((3-methyl-1-(tetrahydro-2H-pyran-4-yl)-1H-pyrazol-5-yl)amino) isonicotinic acid]	100 to 1000	100 to 1000
COc1ccccc1-n1cc(C)c(Nc2cnccc2C(=O)O)n1 [Compound 63, 3-((1-(2-methoxyphenyl)-4-methyl-1H-pyrazol-3-yl)amino) isonicotinic acid]	100 to 1000	100 to 1000
N[C@H]1CC[C@@H](n2nc(-c3ccccc3)cc2Nc2cnccc2C(=O)O)CC1 [Compound 37, 3-((1-((cis)-4-aminocyclohexyl)-3-phenyl-1H-pyrazol-5-yl)amino)isonicotinic acid]	100 to 1000	100 to 1000
Cc1c(-c2ccccc2)nn(CCN2CCC(F)(F)CC2)c1Nc1cnccc1C(=O)O [Compound 66, 3-((1-(2-(4,4-difluoropiperidin-1-yl)ethyl)-4-methyl-3-phenyl-1H-pyrazol-5-yl)amino)isonicotinic acid]	10000 to 100000	10000 to 100000
O=C(O)c1ccncc1Nc1cc(-c2ccccc2)nn1-c1ccccc1 [Compound 21, 3-((1,3-Diphenyl-1H-pyrazol-5-yl)amino)isonicotinic acid]	1000 to 10000	100 to 1000
O=C(O)c1ccncc1Nc1nn(CCC(F)(F)F)cc1-c1ccncc1 [Compound 74, 3-((4-(pyridin-4-yl)-1-(3,3,3-trifluoropropyl)-1H-pyrazol-3-yl)amino)isonicotinic acid]	100 to 1000	100 to 1000
Cc1c(Nc2cnccc2C(=O)O)cnn1C1CCNCC1 [Compound 68, 3-((5-methyl-1-(piperidin-4-yl)-1H-pyrazol-4-yl)amino)isonicotinic acid]	100 to 1000	100 to 1000
Cn1cc(Nc2cnccc2C(=O)O)c(-c2ccccc2)n1 [Compound 13, 3-((1-methyl-3-phenyl-1H-pyrazol-4-yl)amino) isonicotinic acid]	1000 to 10000	100 to 1000
Cc1nn(C2CCNCC2)cc1Nc1cnccc1C(=O)O [Compound 69, 3-((3-methyl-1-(piperidin-4-yl)-1H-pyrazol-4-yl)amino) isonicotinic acid]	100 to 1000	1000 to 10000
Cc1nn(C2CCCN(C)CC2)cc1Nc1cnccc1C(=O)O (stereo not drawn) [Compound 111, 3-(3-methyl-1-(1-methylazepan-4-yl)-1H-pyrazol-4-ylamino) isonicotinic acid]	100 to 1000	100 to 1000
Cc1cn(-c2ccccc2C#N)nc1Nc1cnccc1C(=O)O [Compound 71, 3-((1-(2-cyanophenyl)-4-methyl-1H-pyrazol-3-yl)amino) isonicotinic acid]	100 to 1000	100 to 1000
Cc1nn(C2CCCNCC2)cc1Nc1cnccc1C(=O)O (single isomer, unassigned) [Compound 116]	100 to 1000	100 to 1000
O=C(O)c1ccncc1Nc1cc(-c2ccccc2)nn1C1CCOCC1 [Compound 23, 3-((3-Phenyl-1-(tetrahydro-2H-pyran-4-yl)-1H-pyrazol-5-yl)amino)isonicotinic acid]	1000 to 10000	100 to 1000
Cn1nc(-c2ccc(Cl)cc2)cc1Nc1cnccc1C(=O)O [Compound 24, 3-((3-(4-Chlorophenyl)-1-methyl-1H-pyrazol-5-yl)amino) isonicotinic acid]	100 to 1000	1000 to 10000
Cn1cc(-c2ccccc2)c(Nc2cnccc2C(=O)O)n1 [Compound 3]	1000 to 10000	1000 to 10000
Cc1c(Nc2cnccc2C(=O)O)nn(CCN2CCC(F)(F)CC2)c1-c1ccccc1 [Compound 67, 3-((1-(2-(4,4-difluoropiperidin-1-yl)ethyl)-4-methyl-5-phenyl-1H-pyrazol-3-yl)amino)isonicotinic acid]	1 to 100	100 to 1000
